# Test results reported in patent US10344001B2, “Azolylacryloyl derivatives as therapeutic agents for sickle cell disease” (VIRGINIA COMMONWEALTH UNIVERSITY, priority 2015, dated 2019).
# Experiments:
# [1] = test system: SS cells (sickle red blood cells); test: RBC morphological antisickling study under hypoxic condition; format: cell-based, human; settings: 2 mM compound, 1 hr under air, then 4% oxygen/96% nitrogen at 37° C. for 5 hrs; for inhibition at 2000 µM: Homo sapiens, Erythrocyte, read-out: Reduction (inhibition) of RBC sickling
# Source text: (§1) De-identified, leftover EDTA venous blood samples from patients with SCD who visited The Children's Hospital of Philadelphia for routine clinic visits, were obtained after informed consent and used for antisickling study. Normal whole blood was collected from adult donors at the Virginia Commonwealth University after informed consent and used for oxygen equilibrium curve study. Hb was purified from discarded normal blood samples following published procedure and used for OEC study^34. The use of these human samples is in accordance with regulations of the IRB for Protection of Human Subjects.
# KAUS-38 and KAUS-39 at 2 mM concentrations were tested for their abilities to prevent RBC sickling under hypoxic condition following previously reported assay^20. Briefly SS cells were suspended in Hemox buffer (TCS Scientific Corp, Southampton, Pa.), pH 7.4, that contained 10 mM glucose and 0.2% bovine serum albumin. The solution was incubated under air in the absence (control) or presence of […] 2 mM concentration of test compound at 37° C. for 1 hr. Following, the suspension was incubated under hypoxic condition (4% oxygen/96% nitrogen) at 37° C. for 5 hrs. The suspension was fixed with 2% glutaraldehyde solution without exposure to air and then subjected to microscopic morphological analysis as previously reported […]
# Hb in normal whole blood = biological target: T1, Hb in normal whole blood (Homo sapiens, UniProt P68871+P69905); test: Oxygen equilibrium curve (OEC) study in normal whole blood, multipoint tonometry; format: cell-based; settings: hematocrit 20%, 1.5 h at 37° C.
# T1 construct: Normal whole blood was collected from adult donors at the Virginia Commonwealth University; endogenous in cells; host or cells: erythrocytes in normal adult human whole blood (hematocrit 20%)
# Source text: as §1
# The ability of the KAUS compounds to left-shift the OEC (stabilize the R-state and/or destabilize the T-state) and increase the oxygen affinity of Hb in normal whole blood or free human hemoglobin was determined by multipoint tonometry as previously reported^20. First, cell free normal human hemoglobin (1 mM) or normal whole blood (hematocrit of 20%) was incubated with 1 mM or 2 mM final test compound (KAUS-28, KAUS-29, KAUS-33, KAUS-38 or KAUS-39) for 1.5 h at 37° C. Following incubation, the mixture was equilibrated in a tonometer with oxygen tensions of 6, 20 and 60 mmHg for 10 min each, and pO2 (mmHg) and sO2 (%) values were measured thereafter using ABL 700 series automated blood gas analyzer (Radiometer America, Inc., Westlake, Ohio). The measured values of pO2 and sO2 at each oxygen tension level were then subjected to a non-linear regression analysis using the program Scientist (Micromath, Salt Lake City, Utah) to calculate P50 and the Hill coefficient (N) values. Time-dependent OEC studies (1 hr, 4 hr, 8 hr and 12 hr) were also performed for KAUS-28, KAUS-33, KAUS-38, and KAUS-39 at final compound concentration of 2 mM. ECA and the previously studied azolylacryloyl-carboxylate derivative, KAUS-15 were used as positive controls. Compounds were dissolved in DMSO to make 100-250 mM stock solutions, and DMSO was used in all control samples. All OEC studies were performed in duplicates.
# [2] = Reactivity toward free L-cysteine (UPLC-MS of compound and adduct); settings: incubated with L-Cys for 3 hours; for Ratio of Cpd/Adduct (Adduct peak): share of L-cysteine adduct peak; for Ratio of Cpd/Adduct (Compound peak): share of unreacted compound peak; for Reactivity with L-Cys (adduct share): values in text
# Source text: The above synthesized KAUS compounds were expected to covalently bind to Hb through a Michael addition reaction with the βCys93 at the surface of the protein to effect their allosteric and antisickling activities. We therefore investigated L-Cys conjugates with KAUS-28, KAUS-29, KAUS-33, KAUS-38 and KAUS-39 with ECA as a positive control using UPLC-MS analysis as previously described^20 with an Acquity H-Class UPLC which is connected to a PDA detector and an Acquity TQD detector. The column used was an Acquity UPLC BEH C18 1.7 μm, 2.1×50 mm, with a Vanguard pre-column attached. Solvent A consisted of water with 0.02% formic acid, while solvent B consisted of 90:10 acetonitrile:water with 0.02% formic acid. A gradient run was performed such that solvent B was increased from 0% B to 100% B from time 0-5 mins, followed by 3 minute wash at 100% B and then a return and re-equilibration at 100% A in the next 4 mins. The flow rate was maintained at 0.5 ml/min throughout the run. 2 μL of sample was injected per run. […] The eluent was then introduced into the TQD detector. The TQD detector was set at positive ionization mode with a capillary voltage of 3.20 kV, cone voltage of 20 V, extractor voltage of 1 V, and RF lens voltage of 0.1 V. The source temperature was set at 150° C., while the desolvation temperature was set at 350° C. and the desolvation and cone gas flows were set at 650 and 50 L/hr respectively. Scans were made from 100-700 m/z with scan duration of 0.5 seconds to obtain mass spectra at different time points.
# [3] = biological target: T2, cell free normal human hemoglobin (Homo sapiens, UniProt P68871+P69905); test: Oxygen equilibrium curve (OEC) study with cell free hemoglobin, multipoint tonometry; format: biochemical; settings: cell free normal human hemoglobin 1 mM; 1 mM or 2 mM compound
# T2 construct: Hb was purified from discarded normal blood samples following published procedure and used for OEC study; from tissue; host or cells: discarded normal human blood samples
# Source text: as §1
# The ability of the KAUS compounds to left-shift the OEC (stabilize the R-state and/or destabilize the T-state) and increase the oxygen affinity of Hb in normal whole blood or free human hemoglobin was determined by multipoint tonometry as previously reported^20. […] Following incubation, the mixture was equilibrated in a tonometer with oxygen tensions of 6, 20 and 60 mmHg for 10 min each, and pO2 (mmHg) and sO2 (%) values were measured thereafter using ABL 700 series automated blood gas analyzer (Radiometer America, Inc., Westlake, Ohio). The measured values of pO2 and sO2 at each oxygen tension level were then subjected to a non-linear regression analysis using the program Scientist (Micromath, Salt Lake City, Utah) to calculate P50 and the Hill coefficient (N) values. […]
# T1 sequence (P69905 2-142 limits assumed): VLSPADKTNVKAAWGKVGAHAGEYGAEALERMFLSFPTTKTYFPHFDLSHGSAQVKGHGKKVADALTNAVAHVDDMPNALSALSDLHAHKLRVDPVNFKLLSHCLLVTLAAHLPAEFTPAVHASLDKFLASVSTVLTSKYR
# T1 sequence (P68871 2-147 limits assumed): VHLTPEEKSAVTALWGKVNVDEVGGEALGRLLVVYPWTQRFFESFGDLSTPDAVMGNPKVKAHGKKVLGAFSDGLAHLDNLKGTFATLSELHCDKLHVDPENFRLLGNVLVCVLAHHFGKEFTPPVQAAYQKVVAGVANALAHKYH
# T2 sequence (P69905 2-142 limits assumed): as the sequence (P69905 2-142 limits assumed) above
# T2 sequence (P68871 2-147 limits assumed): as the sequence (P68871 2-147 limits assumed) above
Compound,"OEC effect (increase of Hb affinity for oxygen, left shift) (Hb in normal whole blood; 1 mM compound) [%]","OEC effect (increase of Hb affinity for oxygen, left shift) (Hb in normal whole blood; 2 mM compound) [%]",melting point,inhibition at 2000 µM [1] [%],Ratio of Cpd/Adduct (Adduct peak) [2],Ratio of Cpd/Adduct (Compound peak) [2],Reduction (inhibition) of RBC sickling [1] [%],Effect on Hb affinity for oxygen in cell free Hb (in words) [3],Reactivity with L-Cys (adduct share) [2] [%]
"C=C(CC)C(=O)c1ccc(OCC(=O)O)c(Cl)c1Cl [Ethacrynic Acid, ethacrynic acid, reference compound]",6.1,21.3,–,18,96.3,3.7,–,–,–
"O=C(/C=C/c1ncc[nH]1)c1ccccc1 [KAUS-28, (E)-3-(1H-imidazol-2-yl)-1-phenylprop-2-en-1-one]",–,–,–,–,6.9,93.1,–,–,–
"O=C(/C=C/c1ncc[nH]1)c1ccc(OCc2ccccc2)cc1 [KAUS-34, (E)-1-(4-(benzyloxy)phenyl)-3-(1H-imidazol-2-yl)prop-2-en-1-one]",–,–,> 250 °C (dec.),–,–,–,–,–,–
"COc1ccc(C(=O)/C=C/c2ncc[nH]2)cc1 [KAUS-38, (E)-3-(1H-imidazol-2-yl)-1-(4-methoxyphenyl)prop-2-en-1-one]",8,14,–,18,37.8,62.2,–,–,37.8
"COc1ccc(C(=O)/C=C/c2ncc[nH]2)cc1OC [KAUS-39, (E)-1-(3,4-dimethoxyphenyl)-3-(1H-imidazol-2-yl)prop-2-en-1-one]",–,–,222 to 223 °C,5,27.2,72.8,–,–,27.2

# The next lines start with results.
"OEC effect (increase of Hb affinity for oxygen, left shift) (Hb in normal whole blood; 1 mM compound) [%]","OEC effect (increase of Hb affinity for oxygen, left shift) (Hb in normal whole blood; 2 mM compound) [%]",melting point,Compound,inhibition at 2000 µM [1] [%],Ratio of Cpd/Adduct (Adduct peak) [2],Ratio of Cpd/Adduct (Compound peak) [2],Reduction (inhibition) of RBC sickling [1] [%],Effect on Hb affinity for oxygen in cell free Hb (in words) [3],Reactivity with L-Cys (adduct share) [2] [%]
1,7,–,"O=C(O)CCCOc1ccc(C(=O)/C=C/c2ncc[nH]2)cc1Cl [KAUS-15, reference compound]",–,–,–,6,significantly more potent effect with cell free Hb than with whole blood,–
8,14,–,"COc1cccc(C(=O)/C=C/c2ncc[nH]2)c1 [KAUS-29, (E)-3-(1H-imidazol-2-yl)-1-(3-methoxyphenyl)prop-2-en-1-one]",–,2.1,97.9,–,–,–
–,–,250 to 253 °C,"O=C(/C=C/c1ncc[nH]1)c1ccc(O)cc1 [KAUS-32, (E)-1-(4-hydroxyphenyl)-3-(1H-imidazol-2-yl)prop-2-en-1-one]",–,–,–,–,–,–
9.9,16.5,–,"O=C(/C=C/c1ncc[nH]1)c1ccc(OC2CCCCO2)cc1 (stereo not shown) [KAUS-33, (E)-3-(1H-imidazol-2-yl)-1-(4-((tetrahydro-2H-pyran-2-yl)oxy)phenyl)prop-2-en-1-one]",–,24.8,75.2,–,–,24.8
–,–,> 250 °C (dec.),"COc1cc(C(=O)/C=C/c2ncc[nH]2)ccc1O [KAUS-36, (E)-1-(4-hydroxy-3-methoxyphenyl)-3-(1H-imidazol-2-yl)prop-2-en-1-one]",–,–,–,–,–,–
